# In ChEMBL document CHEMBL4308842, “Allosteric Modulators of HSP90 and HSP70: Dynamics Meets Function through Structure-Based Drug Design” (J Med Chem, 2018):
# What was measured:
# SK-BR-3 = test: Antiproliferative activity against human SKBR3 cells; assay type: functional, cell-based
# MCF7 = test: Antiproliferative activity against human MCF7 cells; assay type: functional, cell-based
# Jurkat [1] = test: Potency index, ratio of etoposide IC50 to compound IC50 for antiproliferative activity against human Jurkat T cells; assay type: functional
# Heat shock protein HSP90 = Heat shock protein HSP90 (Homo sapiens, UniProt P07900+P08238); test: Binding affinity to HSP90 (unknown origin) by SPR analysis; assay type: protein assay
# Jurkat [2] = test: Potency index, ratio of novobiocin IC50 to compound IC50 for antiproliferative activity against human Jurkat T cells; assay type: functional
# Jurkat [3] = test: Potency index, ratio of 17-AAG IC50 to compound IC50 for antiproliferative activity against human Jurkat T cells; assay type: functional
# Jurkat [4] = test: Antiproliferative activity against human Jurkat T cells after 48 hrs; assay type: functional, cell-based
# [5] = target: Chaperone protein dnaK (Escherichia coli) (UniProt C3TRK2); test: Inhibition of Escherichia coli DNAK ATPase activity after 3 hrs relative to control; conditions: concentration not given here
# Chain of Chaperone protein dnaK (Escherichia coli) (C3TRK2 1-638): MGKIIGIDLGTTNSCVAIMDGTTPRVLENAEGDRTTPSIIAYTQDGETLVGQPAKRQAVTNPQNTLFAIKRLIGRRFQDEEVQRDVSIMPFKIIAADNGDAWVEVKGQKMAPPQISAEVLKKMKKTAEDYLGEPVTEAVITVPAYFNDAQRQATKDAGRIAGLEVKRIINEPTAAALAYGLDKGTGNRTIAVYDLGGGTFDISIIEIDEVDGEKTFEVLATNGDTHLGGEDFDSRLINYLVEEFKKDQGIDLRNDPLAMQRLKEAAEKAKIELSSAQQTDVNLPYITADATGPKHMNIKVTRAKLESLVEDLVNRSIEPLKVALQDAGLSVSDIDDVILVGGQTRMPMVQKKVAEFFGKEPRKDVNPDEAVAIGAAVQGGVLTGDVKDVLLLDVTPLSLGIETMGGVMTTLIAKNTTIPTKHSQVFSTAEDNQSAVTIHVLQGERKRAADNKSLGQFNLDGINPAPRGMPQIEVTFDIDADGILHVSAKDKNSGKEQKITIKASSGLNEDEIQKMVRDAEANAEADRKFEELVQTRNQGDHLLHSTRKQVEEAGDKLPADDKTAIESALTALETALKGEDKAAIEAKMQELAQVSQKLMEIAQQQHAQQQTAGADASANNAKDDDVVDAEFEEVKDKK
smiles,measurement,setting,value
CO[C@@H]1[C@@H](OC(=O)c2ccc(C)[nH]2)[C@@H](O)[C@H](Oc2ccc3c(O)c(NC(=O)c4c[nH]c(C(=O)Nc5c(O)c6ccc(O[C@@H]7OC(C)(C)[C@H](OC)[C@@H](OC(=O)c8ccc(C)[nH]8)[C@H]7O)c(C)c6oc5=O)c4C)c(=O)oc3c2C)OC1(C)C,IC50,SK-BR-3,2000 nM
same,IC50,MCF7,2000 nM
COc1cccc(-c2cc(C(=O)Nc3cc4cc(OC)c(OC(C)=O)c(C)c4oc3=O)ccc2OC)c1,Ratio IC50,Jurkat [1],3
same,Kd,Heat shock protein HSP90,1000 to 2000 nM
same,Ratio IC50,Jurkat [2],600
same,Ratio IC50,Jurkat [3],10
same,IC50,Jurkat [4],416 nM
O=C(O[C@@H]1Cc2c(O)cc(O)cc2O[C@@H]1c1cc(O)c(O)c(O)c1)c1cc(O)c(O)c(O)c1 [EPIGALOCATECHIN GALLATE],IC50,SK-BR-3,4000 nM
same,IC50,MCF7,4000 nM
O=c1c(O)c(-c2cc(O)c(O)c(O)c2)oc2cc(O)cc(O)c12,inhibition,[5],75%
